Data: the supplement of paper PMC4932681
Structures can show the parent of a compound that is named as a salt.

Tests used:
Assay in all cases: viability inhibition at highest dose (% inhibition); higher = more growth inhibition
[1] = system: ZR-75-1 Tam2; details: 4-OH-tamoxifen in medium 1 µM; 72 h
Procedure: (§1)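 Percent inhibition of viability (CellTiter-Glo, 72 h) at the highest tested concentration (D5), normalised to DMSO (0%) and 100 µM benzethonium chloride (100%). Resistant lines and the 'in 1µM tamoxifen' arms were tested in 1 µM 4-OH-tamoxifen.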

[2] = system: MCF-7; details: 72 h
Procedure: as §1

[3] = system: BT-474 Tam1; details: 4-OH-tamoxifen in medium 1 µM; 72 h
Procedure: as §1

[4] = system: T-47D; details: 72 h
Procedure: as §1

[5] = system: ZR-75-1 Tam1; details: 4-OH-tamoxifen in medium 1 µM; 72 h
Procedure: as §1

[6] = system: BT-474; details: 72 h
Procedure: as §1

[7] = system: BT-474 Tam2; details: 4-OH-tamoxifen in medium 1 µM; 72 h
Procedure: as §1

[8] = system: ZR-75-1; details: 72 h
Procedure: as §1

[9] = system: MCF-7 Tam1; details: 4-OH-tamoxifen in medium 1 µM; 72 h
Procedure: as §1

[10] = system: T-47D Tam1; details: 4-OH-tamoxifen in medium 1 µM; 72 h
Procedure: as §1

[11] = system: T-47D Tam2; details: 4-OH-tamoxifen in medium 1 µM; 72 h
Procedure: as §1

Compound	viability inhibition at highest dose [1]	viability inhibition at highest dose ([2]; 4-OH-tamoxifen in medium 0 µM)	viability inhibition at highest dose ([2]; 4-OH-tamoxifen in medium 1 µM)	viability inhibition at highest dose [3]	viability inhibition at highest dose ([4]; 4-OH-tamoxifen in medium 0 µM)	viability inhibition at highest dose ([4]; 4-OH-tamoxifen in medium 1 µM)	viability inhibition at highest dose [5]	viability inhibition at highest dose ([6]; 4-OH-tamoxifen in medium 0 µM)	viability inhibition at highest dose ([6]; 4-OH-tamoxifen in medium 1 µM)	viability inhibition at highest dose [7]	viability inhibition at highest dose ([8]; 4-OH-tamoxifen in medium 0 µM)	viability inhibition at highest dose ([8]; 4-OH-tamoxifen in medium 1 µM)	viability inhibition at highest dose [9]	viability inhibition at highest dose [10]	viability inhibition at highest dose [11]
CC[C@]1(O)C[C@@H]2CN(CCc3c([nH]c4ccccc34)[C@@](C(=O)OC)(c3cc4c(cc3OC)N(C)[C@H]3[C@@](O)(C(=O)OC)[C@H](OC(C)=O)[C@]5(CC)C=CCN6CC[C@]43[C@@H]65)C2)C1 [Vinblastine] (drug 1000 nM)	35.9	51.4	57.6	88	14.7	22.2	30.2	43.3	87.4	91.8	24.6	34.4	19.6	55.2	57.8
C[C@]12O[C@H](C[C@]1(O)CO)n1c3ccccc3c3c4c(c5c6ccccc6n2c5c31)CNC4=O [Lestaurtinib] (drug 1000 nM)	12.4	21.4	9.26	46.3	-13.3	19.6	1.32	10.1	42.1	24.5	8.87	8.3	21.2	-16.2	-5.08
COc1cc2nccc(Oc3ccc(NC(=O)C4(C(=O)Nc5ccc(F)cc5)CC4)cc3)c2cc1OC [Cabozantinib (XL184)] (drug 1000 nM)	2.11	5.85	11.3	22.4	-4.29	-1.77	6.25	-10.4	16	7.72	-14.6	-2.98	1.76	2.69	10.4
O=C(Nc1cccnc1)N1CCC(Cc2cccc(Oc3ccc(C(F)(F)F)cn3)c2)CC1 [PF-3845] (drug 10000 nM)	49.9	53.1	58.6	95.4	40.6	25.3	39.4	72	81.8	95.7	30.5	51.3	29.1	52.3	36.1
O=C(c1ccc(OCCN2CCCCC2)cc1)c1c(-c2ccc(O)cc2)sc2cc(O)ccc12 [Raloxifene  HCl] (drug 10000 nM)	2.72	33.2	33.8	44.3	11.3	9.48	9.11	22.8	54	34.8	11.9	13.3	21.5	12.6	25.9
CCNC(=O)c1noc(-c2cc(C(C)C)c(O)cc2O)c1-c1ccc(CN2CCOCC2)cc1 [NVP-AUY922] (drug 1000 nM)	44.4	61.6	46.1	75.2	68.8	55.5	28.5	48.6	78	65.7	34.2	42.6	24.1	49.8	55
COc1cc2c(Oc3ccc(NC(=O)C4(C(=O)Nc5ccc(F)cc5)CC4)cc3F)ccnc2cc1OCCCN1CCOCC1 [Foretinib (Foretinib)] (drug 1000 nM)	19.5	16.9	20.7	31.4	20.6	17.8	9.43	1.4	44.6	10.3	0.383	13.7	26.2	19	28.5
CN1CCN(c2nc(C3=C(c4c[nH]c5ccccc45)C(=O)NC3=O)c3ccccc3n2)CC1 [Sotrastaurin] (drug 10000 nM)	7.03	21.3	10	65.2	-8.99	1.91	9.64	9.38	48.9	25.2	6.75	14.4	8.16	8.91	6.92
Cc1c(CN2CCN(C(=O)[C@H](C)O)CC2)sc2c(N3CCOCC3)nc(-c3cnc(N)nc3)nc12 [GDC-0980] (drug 10000 nM)	72.1	74	73.4	87.4	73.8	72.1	66.6	60.1	86.3	84.3	64.4	56.3	52.1	67.1	64
C=CC[C@@H]1/C=C(\C)C[C@H](C)C[C@H](OC)[C@H]2O[C@@](O)(C(=O)C(=O)N3CCCC[C@H]3C(=O)O[C@H](/C(C)=C/[C@@H]3CC[C@@H](O)[C@H](OC)C3)[C@H](C)[C@@H](O)CC1=O)[C@H](C)C[C@@H]2OC [Tacrolimus (FK 506)] (drug 10000 nM)	11.5	25.3	37.4	46.6	5.71	3.68	15.5	8.63	39.4	35	-3.64	16	18.8	27.2	23.9
